# Assay results: ChEMBL document CHEMBL1156554, “Aminoquinazolines as TRPV1 antagonists: modulation of drug-like properties through the exploration of 2-position substitution” (Bioorg Med Chem Lett, 2008)
# Key:
# [1] = Tmax in rat at 2.0 mg/kg, po dosed in 0.5% methylcellulose, 0.1% triacetin; format: ADME, organism-based; design: dose 2 mg/kg, route oral; settings: in vivo
# [2] = Cmax in rat at 2.0 mg/kg, po dosed in 0.5% methylcellulose, 0.1% triacetin; format: ADME, organism-based; design: dose 2 mg/kg, route oral; settings: in vivo
# [3] = AUC (0 to infinity) in rat at 2.0 mg/kg, po dosed in 0.5% methylcellulose, 0.1% triacetin; format: ADME, organism-based; design: time infinity, dose 2 mg/kg, route oral; settings: in vivo
# [4] = Dissociation constant, pKa of the compound; format: physicochemical
# [5] = Bioavailability in rat at 2.0 mg/kg, po dosed in 0.5% methylcellulose, 0.1% triacetin; format: ADME, organism-based; settings: in vivo
# Liver microsomes [6] = assay: Metabolic stability in rat liver microsomes at 1 uM; format: ADME, Microsome
# [7] = Half life in rat at […], iv dosed in 50% PEG-400/water; format: ADME, organism-based; design: dose 1.5 mg/kg, route intravenous; settings: in vivo
# [8] = Volume of distribution at steady state in rat at […], iv dosed in 50% PEG-400/water; format: ADME, organism-based; design: dose 1.5 mg/kg, route intravenous; settings: in vivo, read-out: Vdss
# [9] = Clearance in rat at […], iv dosed in 50% PEG-400/water; format: ADME, organism-based; design: dose 1.5 mg/kg, route intravenous; settings: in vivo
# Liver microsomes [10] = assay: Metabolic stability in human liver microsomes at 1 uM; format: ADME, Microsome
# [11] = Chemical stability in 0.1 N HCl after 4 hrs; format: physicochemical; settings: read-out: Activity
# [12] = Tmax in rat at […], po dosed in 0.5% methylcellulose, 0.1% triacetin; format: ADME, organism-based; design: dose 2.1 mg/kg, route oral; settings: in vivo
# [13] = AUC (0 to infinity) in rat at […], po dosed in 0.5% methylcellulose, 0.1% triacetin; format: ADME, organism-based; design: time infinity, dose 2.1 mg/kg, route oral; settings: in vivo
# [14] = Bioavailability in rat at […], po dosed in 0.5% methylcellulose, 0.1% triacetin; format: ADME, organism-based; settings: in vivo
# [15] = Cmax in rat at […], po dosed in 0.5% methylcellulose, 0.1% triacetin; format: ADME, organism-based; design: dose 2.1 mg/kg, route oral; settings: in vivo
# [16] = Cmax in rat at 2.0 mg/kg, po dosed in 2% D-alpha-tocopheryl polyethylene glycol 1000 succinate; format: ADME, organism-based; design: dose 2 mg/kg, route oral; settings: in vivo
# [17] = AUC (0 to infinity) in rat at 2.0 mg/kg, po dosed in 2% D-alpha-tocopheryl polyethylene glycol 1000 succinate; format: ADME, organism-based; design: dose 2 mg/kg, route oral, time infinity; settings: plasma
# [18] = Tmax in rat at 2.0 mg/kg, po dosed in 2% D-alpha-tocopheryl polyethylene glycol 1000 succinate; format: ADME, organism-based; design: dose 2 mg/kg, route oral; settings: in vivo
# [19] = (§1) Bioavailability in rat at 2.0 mg/kg, po dosed in 2% D-alpha-tocopheryl polyethylene glycol 1000 succinate; format: ADME, organism-based; settings: in vivo
# [20] = Volume of distribution at steady state in rat at 1.0 mg/kg, iv dosed in 50% PEG-400/water; format: ADME, organism-based; design: dose 1 mg/kg, route intravenous; settings: in vivo, read-out: Vdss
# [21] = Clearance in rat at 1.0 mg/kg, iv dosed in 50% PEG-400/water; format: ADME, organism-based; design: dose 1 mg/kg, route intravenous; settings: in vivo
# [22] = Ratio of drug level in brain to plasma in rat at 3 mg/kg, po after 4 hrs; format: ADME, organism-based; design: dose 3 mg/kg, route oral
# [23] = Half life in rat at 1.0 mg/kg, iv dosed in 50% PEG-400/water; format: ADME, organism-based; design: dose 1 mg/kg, route intravenous; settings: in vivo
# [24] = Half life in rat at 2.7 mg/kg, iv dosed in 50% PEG-400/water; format: ADME, organism-based; design: dose 2.7 mg/kg, route intravenous; settings: in vivo
# [25] = Volume of distribution at steady state in rat at 2.7 mg/kg, iv dosed in 50% PEG-400/water; format: ADME, organism-based; design: dose 2.7 mg/kg, route intravenous; settings: in vivo, read-out: Vdss
# [26] = Clearance in rat at 2.7 mg/kg, iv dosed in 50% PEG-400/water; format: ADME, organism-based; design: dose 2.7 mg/kg, route intravenous; settings: in vivo
# Rattus norvegicus = assay: as §1; format: ADME, organism-based; settings: in vivo
Structure (SMILES),Tmax [1],Cmax [2],AUC(0-inf) [3],pKa [4],Stability (Liver microsomes [6]),Stability (Liver microsomes [10]),also measured
C[C@@H]1CN(Cc2nc(Nc3ccc(C(F)(F)F)nc3)c3ccc(-c4ncccc4C(F)(F)F)cc3n2)C[C@H](C)O1,0.9 h,93 ng/mL,218 ng·h/mL,,,,
CC1CN(Cc2nc(Nc3ccc(C(F)(F)F)cc3)c3ccc(-c4ncccc4C(F)(F)F)cc3n2)CC(C)O1 (stereo not drawn),,,,7.51,,,
FC(F)(F)c1ccc(Nc2nc(CCCN3CCOCC3)nc3cc(-c4ncccc4C(F)(F)F)ccc23)cc1,,,,7.86,,,
FC(F)(F)c1ccc(Nc2ncnc3cc(-c4ncccc4C(F)(F)F)ccc23)nc1,5.7 h,137 ng/mL,7620 ng·h/mL,3.26,Stable,Stable,bioavailability [5]: 89%; half-life [7]: 38 h; Vd [8]: 12 L/kg; clearance [9]: 4.2 mL/min/kg; remaining at 4 h [11]: 57%
CCOCc1nc(Nc2ccc(C(F)(F)F)nc2)c2ccc(-c3ncccc3C(F)(F)F)cc2n1,,,,,Stable,Stable,
CN1CCN(Cc2nc(Nc3ccc(C(F)(F)F)cc3)c3ccc(-c4ncccc4C(F)(F)F)cc3n2)CC1,,,,7.68,,,
FC(F)(F)c1ccc(Nc2nc(CN3CCOCC3)nc3cc(-c4ncccc4C(F)(F)F)ccc23)nc1,,,,,Stable,Stable,
FC(F)(F)c1ccc(Nc2ncnc3cc(-c4ncccc4C(F)(F)F)ccc23)cn1,,,,3.48,Stable,Stable,Tmax [12]: 1.8 h; AUC(0-inf) [13]: 982 ng·h/mL; bioavailability [14]: 61%; half-life [7]: 4.2 h; Cmax [15]: 137 ng/mL; Cmax [16]: 211 ng/mL; Vd [8]: 5.5 L/kg; AUC(0-inf) [17]: 1450 ng·h/mL; clearance [9]: 22 mL/min/kg; Tmax [18]: 1.7 h; bioavailability [19]: 94%
COCc1nc(Nc2ccc(C(F)(F)F)cc2)c2ccc(-c3ncccc3C(F)(F)F)cc2n1,3.7 h,215 ng/mL,3250 ng·h/mL,3.7,,,Vd [20]: 3.5 L/kg; bioavailability [5]: 50%; clearance [21]: 5.3 mL/min/kg; Kp at 4 h [22]: 1.8; half-life [23]: 6.9 h
CC(C)OCc1nc(Nc2ccc(C(F)(F)F)nc2)c2ccc(-c3ncccc3C(F)(F)F)cc2n1,,,,,Stable,Stable,
FC(F)(F)c1ccc(Nc2ncnc3cc(-c4ncccc4C(F)(F)F)ccc23)cc1 [NGD-8243],3 h,13 ng/mL,121 ng·h/mL,4.54,,,half-life [24]: 8 h; bioavailability [5]: 8%; Cmax [16]: 101 ng/mL; Vd [25]: 13 L/kg; clearance [26]: 23 mL/min/kg; AUC(0-inf) [17]: 1430 ng·h/mL; Tmax [18]: 0.67 h; F (Rattus norvegicus): 99%
